Where a name gives a salt, the structure may show the parent alone.
Target: T1, Recombinant human H-PGDS (Homo sapiens, UniProt O60760)
T1 construct: made in house; host or cells: E. coli
Experiment: H-PGDS inhibitory activity (prostaglandin D2 production from prostaglandin H2, measured by LC-MS/MS)
Assay type: biochemical
Conditions: recombinant human H-PGDS 1.0 nM expressed in E. coli; prostaglandin H2 25 μM; preincubated 15 minutes on ice, reacted on ice for 1 minute; concentration that inhibits prostaglandin D2 production by 50%
Summary of the method: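 PGD2 formed from 25 µM prostaglandin H2 during a 1-min on-ice reaction was measured by LC-MS/MS after an FeCl2/citric acid stop. The enzyme was 1.0 nM E. coli-expressed human H-PGDS in Tris-HCl pH 8.0 buffer with MgCl2, reduced glutathione and γ-globulin, preincubated with compound for 15 min on ice. Production was normalised to DMSO controls minus the no-enzyme background.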

T1 sequence (O60760 whole entry): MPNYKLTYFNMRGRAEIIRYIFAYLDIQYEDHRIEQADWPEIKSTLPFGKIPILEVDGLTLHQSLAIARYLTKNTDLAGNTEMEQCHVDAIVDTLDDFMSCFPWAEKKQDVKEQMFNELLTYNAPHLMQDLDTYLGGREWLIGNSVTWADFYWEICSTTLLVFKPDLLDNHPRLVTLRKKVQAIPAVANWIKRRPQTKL

IC50 [nM] | Structure (SMILES)
51 | CC(C)(O)[C@H]1CC[C@H](NC(=O)c2ccc(-c3nc(C#N)cc4occc34)cc2)CC1 [Example 317, 4-(6-cyanofuro[3,2-c]pyridin-4-yl)-N-[trans-4-(2-hydroxypropan-2-yl)cyclohexyl]benzamide]
4 | O=C(N[C@H]1CC[C@H](N2CCCC2=O)CC1)c1ccc(-c2nccc3occc23)cc1 [Example 299, 4-(furo[3,2-c]pyridin-4-yl)-N-[trans-4-(2-oxopyrrolidin-1-yl)cyclohexyl]benzamide]
1.7 | CC(C)(O)CO[C@H]1CC[C@@H](NC(=O)c2ccc(-c3nccc4occc34)cc2)CC1 [Example 348, 4-(furo[3,2-c]pyridin-4-yl)-N-[cis-4-(2-hydroxy-2-methylpropoxy)cyclohexyl]benzamide]
1.9 | CC(C)[C@]1(O)CC[C@@H](NC(=O)c2ccc(-c3nccc4occc34)cc2)CC1 [Example 292, 4-(furo[3,2-c]pyridin-4-yl)-N-(cis-4-hydroxy-4-isopropylcyclohexyl)benzamide]
55 | O=C(N[C@H]1CC[C@H](N2CCOCC2)CC1)c1ccc(-c2nccc3occc23)cc1 [Example 305, 4-(furo[3,2-c]pyridin-4-yl)-N-(trans-4-morpholinocyclohexyl)benzamide]
2.2 | CC1(C)CC(O)CC(NC(=O)c2ccc(-c3nccc4occc34)cc2)C1 (stereo not shown) [Example 280, 4-(furo[3,2-c]pyridin-4-yl)-N-(5-hydroxy-3,3-dimethylcyclohexyl)benzamide]
2.6 | CC(C)(O)[C@H]1CC[C@H](NC(=O)c2ccc(-c3nc(N)cc4occc34)cc2)CC1 [Example 315, 4-(6-aminofuro[3,2-c]pyridin-4-yl)-N-[trans-4-(2-hydroxypropan-2-yl)cyclohexyl]benzamide]
1.3 | O=C(NC1CCN(C(=O)C2CC2)CC1)c1ccc(-c2nccc3occc23)c(F)c1 [Example 324, N-[1-(cyclopropanecarbonyl)piperidin-4-yl]-3-fluoro-4-(furo[3,2-c]pyridin-4-yl)benzamide]
1.1 | O=C(N[C@H]1CC[C@H](C2(O)CC2)CC1)c1ccc(-c2nccc3occc23)c(F)c1 [Example 327, 3-fluoro-4-(furo[3,2-c]pyridin-4-yl)-N-[trans-4-(1-hydroxycyclopropyl)cyclohexyl]benzamide]
1.3 | CC(C)O[C@H]1CC[C@H](NC(=O)c2ccc(-c3nccc4occc34)cc2)CC1 [Example 288, 4-(furo[3,2-c]pyridin-4-yl)-N-(trans-4-isopropoxycyclohexyl)benzamide]
1.5 | CCC(O)[C@H]1CC[C@H](NC(=O)c2ccc(-c3nccc4occc34)cc2)CC1 (stereo partly drawn) [Example 308, 4-(furo[3,2-c]pyridin-4-yl)-N-[trans-4-(1-hydroxypropyl)cyclohexyl]benzamide]
1.2 | Cc1cc2occc2c(-c2ccc(C(=O)NC3CCN(C(=O)C4CC4)CC3)cc2)n1 [Example 335, N-[1-(cyclopropanecarbonyl)piperidin-4-yl]-4-(6-methylfuro[3,2-c]pyridin-4-yl)benzamide]
0.89 | NC(=O)C12CCC(NC(=O)c3ccc(-c4nccc5occc45)cc3)(CC1)CC2 [Example 352, 4-[4-(furo[3,2-c]pyridin-4-yl)benzamide]bicyclo[2.2.2]octane-1-carboxamide]
1.3 | CC[C@]1(O)CC[C@@H](NC(=O)c2ccc(-c3nccc4occc34)cc2)CC1 [Example 290, N-(cis-4-ethyl-4-hydroxycyclohexyl)-4-(furo[3,2-c]pyridin-4-yl)benzamide]

Further lines, the compound ahead of its results:

Structure (SMILES) | IC50 [nM]
CCC(=O)N1CCC(NC(=O)c2ccc(-c3nccc4occc34)cc2)CC1 [Example 234, 4-(furo[3,2-c]pyridin-4-yl)-N-(1-propionylpiperidin-4-yl)benzamide] | 1.6
O=C(Nc1ccccn1)c1ccc(-c2nccc3occc23)cc1 [Example 107, 4-(furo[3,2-c]pyridin-4-yl)-N-(pyridin-2-yl)benzamide] | 19
COC(=O)c1ccnc(N2CCC(NC(=O)c3ccc(-c4nccc5occc45)cc3)CC2)n1 [Example 167, Methyl 2-{4-[4-(furo[3,2-c]pyridin-4-yl)benzamide]piperidin-1-yl}pyrimidine-4-carboxylate] | 1.2
O=C(NCc1cnn(CC(F)(F)F)c1)c1ccc(-c2nccc3[nH]ccc23)cc1 [Example 43, 4-(1H-pyrrolo[3,2-c]pyridin-4-yl)-N-{[1-(2,2,2-trifluoroethyl)-1H-pyrazol-4-yl]methyl} benzamide] | 1.3
O=C(NCCCO)c1ccc(-c2nccc3[nH]ccc23)cc1 [Example 30, N-(3-hydroxypropyl)-4-(1H-pyrrolo[3,2-c]pyridin-4-yl)benzamide] | 0.65
O=C(NC1CCN(C(=O)CC(F)(F)F)CC1)c1ccc(-c2nccc3occc23)cc1 [Example 246, 4-(furo[3,2-c]pyridin-4-yl)-N-[1-(3,3,3-trifluoropropanoyl)piperidin-4-yl]benzamide] | 1.8
CCOC(=O)c1cnc(N2CCC(NC(=O)c3ccc(-c4nccc5occc45)cc3)CC2)nc1 [Example 158, Ethyl 2-{4-[4-(furo[3,2-c]pyridin-4-yl)benzamide]piperidin-1-yl}pyrimidine-5-carboxylate] | 0.69
O=C(N[C@H]1CCN(c2cccc(F)n2)C1)c1ccc(-c2nccc3occc23)cc1 [Example 226, (S)—N-[1-(6-fluoropyridin-2-yl)pyrrolidin-3-yl]-4-(furo[3,2-c]pyridin-4-yl)benzamide] | 2.8
Cc1cnc(-c2ccc(C(=O)N[C@H]3CC[C@H](C(C)(C)O)CC3)cc2)c2ccoc12 [Example 129, N-[trans-4-(2-hydroxypropan-2-yl)cyclohexyl]-4-(7-methylfuro[3,2-c]pyridin-4-yl)benzamide] | 2.4
O=C(NC1CCCCC1)c1ccc(-c2nccc3occc23)cc1 [Example 88, N-cyclohexyl-4-(furo[3,2-c]pyridin-4-yl)benzamide] | 4.2
O=C(NC1CCN(c2nccs2)CC1)c1ccc(-c2nccc3occc23)cc1 [Example 101, 4-(furo[3,2-c]pyridin-4-yl)-N-[1-(thiazol-2-yl)piperidin-4-yl]benzamide] | 1
CC(C)N(CCNC(=O)c1ccc(-c2nccc3occc23)cc1)C(C)C [Example 98, N-[2-(diisopropylamino)ethyl]-4-(furo[3,2-c]pyridin-4-yl)benzamide dihydrochloride] | 107
NS(=O)(=O)c1ccc(NC(=O)c2ccc(-c3nccc4occc34)cc2)cc1 [Example 102, 4-(furo[3,2-c]pyridin-4-yl)-N-(4-sulfamoylphenyl) benzamide] | 1.8
O=C(NC1CCN(c2nccc(CO)n2)CC1)c1ccc(-c2nccc3occc23)cc1 [Example 187, 4-(furo[3,2-c]pyridin-4-yl)-N-{1-[4-(hydroxymethyl)pyrimidin-2-yl]piperidin-4-yl}benzamide] | 0.8
Cc1cc(C(=O)N[C@H]2CC[C@H](C(C)(C)O)CC2)ccc1-c1nccc2occc12 [Example 132, 4-(furo[3,2-c]pyridin-4-yl)-N-[trans-4-(2-hydroxypropan-2-yl)cyclohexyl]-3-methylbenzamide] | 74
CC(=O)N(C(C)=O)c1cnc(N2CCC(NC(=O)c3ccc(-c4nccc5occc45)cc3)CC2)nc1 [Example 188, N-{1-[5-(N-acetylacetamide)pyrimidin-2-yl]piperidin-4-yl}-4-(furo[3,2-c]pyridin-4-yl)benzamide] | 4.3
O=C(N[C@H]1CCN(c2cccc(=O)[nH]2)C1)c1ccc(-c2nccc3occc23)cc1 [Example 233, (S)-4-(furo[3,2-c]pyridin-4-yl)-N-[1-(6-oxo-1,6-dihydropyridin-2-yl)pyrrolidin-3-yl]benzamide] | 7.5
COc1ccc(CN2CCC(NC(=O)c3ccc(-c4nccc5occc45)cc3)CC2)cc1Cl [Example 244, N-[1-(3-chloro-4-methoxybenzyl)piperidin-4-yl]-4-(furo[3,2-c]pyridin-4-yl)benzamide] | 4
O=C(NCC(O)CO)c1ccc(-c2nccc3[nH]ccc23)cc1 (stereo not shown) [Example 34, N-(2,3-dihydroxypropyl)-4-(1H-pyrrolo[3,2-c]pyridin-4-yl)benzamide] | 2.4
CCn1nnnc1N1CC[C@H](NC(=O)c2ccc(-c3nccc4occc34)cc2)C1 [Example 232, (S)-4-(furo[3,2-c]pyridin-4-yl)-N-[1-(1-ethyl-1H-tetrazol-5-yl)pyrrolidin-3-yl]benzamide] | 2
Cc1cc(S(N)(=O)=O)ccc1NC(=O)c1ccc(-c2nccc3occc23)cc1 [Example 117, 4-(furo[3,2-c]pyridin-4-yl)-N-(2-methyl-4-sulfamoylphenyl) benzamide] | 12
O=C(N[C@@H]1CC[C@H](O)C1)c1ccc(-c2nccc3occc23)cc1 (relative stereo) [Example 267, 4-(furo[3,2-c]pyridin-4-yl)-N-(cis-3-hydroxycyclopenthyl)benzamide] | 3.1
O=C(NC1CCN(c2ncc(CO)cn2)CC1)c1ccc(-c2nccc3occc23)cc1 [Example 160, 4-(furo[3,2-c]pyridin-4-yl)-N-{1-[5-(hydroxymethyl)pyrimidin-2-yl]piperidin-4-yl}benzamide] | 2.1
O=C(Nc1ccccc1)c1ccc(-c2nccc3occc23)cc1 [Example 89, 4-(furo[3,2-c]pyridin-4-yl)-N-phenylbenzamide] | 3.7
CCCn1ccc(CNC(=O)c2ccc(-c3nccc4[nH]ccc34)cc2)n1 [Example 44, N-[(1-propyl-1H-pyrazol-3-yl)methyl]-4-(1H-pyrrolo[3,2-c]pyridin-4-yl)benzamide] | 0.98
CC(C)N(CCNC(=O)c1ccc(-c2nccc3sccc23)cc1)C(C)C [Example 62, N-[2-(diisopropylamino)ethyl]-4-(thieno[3,2-c]pyridin-4-yl)benzamide dihydrochloride] | 86

From patent US20230339937A1, “CONDENSED RING COMPOUNDS THAT INHIBIT H-PGDS” (SATO PHARMACEUTICAL CO., LTD., priority 2020, published 2023)
